Measured values taken from patent US7413729B2, “Sialic acid permease system” (priority 2005, dated 2008).

How the values were obtained:
[1] = system: nontypeable Haemophilus influenzae; settings: sialic acid 10 uM in plates, inhibitor 0.01-10 μM
Protocol: Assay: Sialic acid 10 uM was incorporated into Brain Heart Infusion plates containing NAD and Hemin. The inhibitor was also added at 0.01 μM, 0.1 μM, 1 μM and 10 μM concentrations. Control plates were simultaneously prepared which lacked inhibitor. Results obtained from these plates represented the 100% sialic acid incorporation The inhibition assay was performed by plating 10^7 nontypeable Haemophilus influenzae onto each plate and allowed them to grow overnight in 5% CO2 at 37° C. After 16 hours, organisms were collected from the plate and separately diluted in distilled water to a density of 0.1 absorbance at 600 nm.
Analysis: These organisms were analyzed for sialic acid incorporation onto the surface of the organism. To accomplish this, one hundred microliters was placed in a microtiter well and allowed to dry overnight in a 37° C. dry incubator. The next day the plates were washed in a microtiter washer and 100 microliters of antibody 3F11 in TBS Tween-20 was placed in each well. Monoclonal antibody 3F11 binds the lactosamine epitope to which the sialic acid is attached. If sialic acid is present, 3F11 will not bind. If sialic acid is absent, 3F11 binds. The plates were then allowed to set at 37° C. in a moist chamber for two hours. The plates were washed and 100 microliters of a mouse anti-IgM phosphatase conjugate was added to each well. The plates was allowed to set in a 37° C. incubator for one hour. The plate was washed, and 100 microliters p-nitrophenol-phosphate was added to each well. The plate was allowed to set for 1 hour and the color reaction was read in a microtiter plate reader at an absorbance of 405 nm.

[2] = system: influenza A neuraminidase; settings: literature statement; cited from earlier work
H. influenzae [3] = assay: Inhibition of sialylation of LOS; assay type: cell-based; settings: found by the inventors
SiaP [4] = target: T1, SiaP (Haemophilus influenzae, UniProt P44542); assay: Biacore surface plasmon resonance, sialic acid binding to SiaP on CM5 sensor chip; parameters: species or system H. influenzae; settings: for evidence of binding to SiaP: concentrations as high as 100 mM
T1 construct: made in house; host or cells: E. coli (PET15 vector)
T1 sequence (P44542 24-329): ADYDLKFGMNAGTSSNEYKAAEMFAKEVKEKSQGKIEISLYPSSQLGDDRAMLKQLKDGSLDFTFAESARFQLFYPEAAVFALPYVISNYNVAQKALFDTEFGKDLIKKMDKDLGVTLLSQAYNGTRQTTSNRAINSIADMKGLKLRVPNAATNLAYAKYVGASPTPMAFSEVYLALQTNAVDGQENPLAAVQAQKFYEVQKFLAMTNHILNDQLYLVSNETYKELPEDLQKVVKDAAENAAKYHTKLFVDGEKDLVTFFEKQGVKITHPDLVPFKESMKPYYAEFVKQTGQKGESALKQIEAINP
Protocol: Biacore® Analysis: Surface plasmon resonance analysis was performed to measure the affinity of binding of sialic acid to SiaP. These studies were performed on a Biacore® instrument using the CM5 sensor chip. SiaP was bound to the chip and increasing concentrations of sialic acid were introduced into the instrument. […] Increasing concentration of sialic acid up to 50 mM show minimal increase in binding. Based on the calculations from this analysis, an association constant of 1.7×10^7 M was calculated.

siaT = siaT (Haemophilus influenzae, UniProt P44542); assay: Biacore analysis of Neu5Ac binding to siaT; parameters: species or system H. influenzae; settings: for binding to siaT: concentrations as high as 200 mM; for binding to siaP (summary statement): restates the Example 3 binding studies
Chain of siaT (P44542 24-329): as above
Text: In one embodiment, one can use the Biacore® screening method for molecules that bind to SiaT. Briefly, one uses a Biacore® instrument to measure bimolecular binding, establish a high throughput system to search for molecules which bind to SiaT or SiaP. SiaT expressing a His tag is bound to a sensor NTA chip in the Biacore® instrument. The Biacore® instrument measures binding events on the sensor chip surface, so that the interactant attached to the surface determines the specificity of the analysis. Testing the specificity of an interaction involves simply asking whether different molecules can bind to the immobilized interactant. Binding gives an immediate change in the SPR signal, so that it is directly apparent whether an interaction takes place or not. As sample is passed over the sensor surface, the progress of binding directly reflects the rate at which the interaction occurs. Injection of sample is followed by buffer flow during which the response reflects the rate of dissociation of the complex on the surface. Kinetic rate constants for the binding and dissociation can be obtained by fitting the results to mathematical descriptions of interaction models. Binding affinities can be obtained either from rate constant measurements (the dissociation constant KD is the ratio of the rate constants kd/ka for a 1:1 interaction) or by measuring the steady state level of binding as a function of sample concentration. The rate of binding of an interactant to a given surface is a function of the interactant concentration, so that measurements with the Biacore® instrument can be used to determine concentration of a specific substance in pure solution or in complex mixtures. The selectivity, dynamic range and other assay performance characteristics are determined largely by the choice of binding molecule attached to the surface. Thus, one can rapidly screen large number of candidate molecules for binding to the SiaT and develop information about rate of binding and dissociation constants. Molecules that have a high binding affinity and dissociate poorly are examined as candidates for study of inhibition of ^3H-sialic acid uptake by nontypeable H. influenzae.
The inventors performed Biacore® analysis of Neu5Ac binding to siaT (FIG. 19). […] Binding peaked at 22 mM and calculations estimated the kD of siaT for Neu5Ac to be 1.7×10^−8.

SiaP [5] = target: T1, SiaP; assay: Binding of 3H-labelled sialic acid to SiaP-Sepharose conjugate; parameters: species or system H. influenzae; settings: LuxS-Sepharose and Sepharose-only controls
Protocol: SiaP binds sialic acid. SiaP was overexpressed in a PET15 vector and purified to homogeneity from E. coli. It was then crosslinked to Sepharose® beads and the ability of the SiaP-Sepharose® conjugate to bind sialic acid was assessed using ^3H-labelled sialic acid. […] Non-specific binding was not observed in this system as evidenced by the LuxS-Sepharose® and Sepharose®-only controls (FIG. 26).

His-tagged siaP = His-tagged siaP (Haemophilus influenzae, UniProt P44542); assay: Binding of 3H-Neu5Ac to His-tagged siaP bound to a nickel affinity resin; parameters: species or system H. influenzae; settings: three experiments; controls His-tagged luxS resin and resin without protein
Chain of His-tagged siaP (P44542 24-329): as above
Text: The inventors also determined whether ^3H-Neu5Ac would bind to His-tagged siaP bound to a nickel affinity resin. […] Two controls are included, the His-tagged luxS protein bound to a nickel affinity resin and nickel affinity with no protein bound to it.

SiaP [6] = target: T1, SiaP; assay: Isothermal titration calorimetry of SiaP with sialic acid; assay type: binding, H. influenzae; settings: ITC
Protocol: Calorimetry and Dynamic Light Scattering. Isothermal titration calorimetry (ITC) experiments were performed in order to determine the binding affinity of SiaP for sialic acid. […] Dynamic light scattering (DLS) experiments were performed to determine the hydrodynamic radius of SiaP with and without sialic acid. […] This was verified by two types of experiments. In the first experiment, excess sialic acid was incubated with SiaP for several hours before DLS experiments were performed. In the second, DLS was performed on protein taken from the calorimeter following an ITC experiment.

H. influenzae [7] = settings: Goon et al. PNAS 100, 3089-3094; cited from earlier work

SMILES: CC(=O)N[C@H]1[C@H]([C@H](O)[C@H](O)CO)O[C@@](Oc2ccc3c(C)cc(=O)oc3c2)(C(=O)[O-])C[C@@H]1O.O.[Na+] [2′-(4-Methylumbelliferyl)-α-D-N-acetylneuraminic acid sodium salt hydrate]
- effect on Neu5Ac incorporation into H. influenzae [1]: did not have any effect

SMILES: CC(=O)N[C@H]1[C@H]([C@H](O)[C@H](O)CO)OC(O)(C(=O)O)C(F)[C@@H]1O (stereo partly drawn) [3-fluorosialic acid, 3-fluoro-N-acetylneuraminic acid]
- reduction of sialic acid uptake ([1]; NTHi strain 2019, versus no inhibitor): 60%
- inhibition of influenza A neuraminidase [2]: potent and specific inhibitors
- inhibition of sialylation of LOS (H. influenzae [3]): highly effective

SMILES: CC(=O)N[C@H]1[C@H]([C@H](O)[C@H](O)CO)OC(C(=O)O)=C[C@@H]1O [DDNA, N-acetyl-2,3-didehydro-2-deoxyneuraminic acid]
- inhibition of influenza A neuraminidase [2]: potent and specific inhibitors

SMILES: CC(=O)N[C@H]1C(O)O[C@H](CO)[C@@H](O)[C@@H]1O (stereo partly drawn) [N-acetylglucosamine]
- evidence of binding to SiaP (SiaP [4]): no evidence of binding

SMILES: CC(=O)N[C@@H]1C(O)O[C@H](CO)[C@@H](O)[C@@H]1O (stereo partly drawn) [N-acetylmannosamine]
- binding to siaT (siaT; Biacore): no binding
- binding to siaP (summary statement) (siaT): failed to bind
- evidence of binding to SiaP (SiaP [4]): no evidence of binding

SMILES: CC(=O)N[C@H]1[C@H]([C@H](O)[C@H](O)CO)OC(O)(C(=O)O)C[C@@H]1O (stereo partly drawn) [Neu5Ac, N-acetylneuraminic acid]
- binding of sialic acid by SiaP-Sepharose (SiaP [5]): capable of binding sialic acid
- Neu5Ac concentration at which binding peaked (siaT; Biacore, Neu5Ac 10 to 50 mM): 22 mM
- Kd (siaT; Biacore, Neu5Ac 10 to 50 mM, estimated by calculation): 17 nM
- binding to siaP (summary statement) (siaT): extremely high affinity
- sialic acid concentration up to which association with SiaP increased (SiaP [4]; up to 50 mM minimal further increase): 20 mM
- binding of 3H-Neu5Ac to resin-bound protein (His-tagged siaP): bound only to the resin to which siaT was bound
- n value calculated from the binding data (SiaP [6]): always less than one
- Kd (SiaP [6]; three independent experiments): 130 nM

SMILES: CC(=O)N[C@H]1[C@H]([C@H](O)[C@H](O)CO)OC(C(=O)O)=C[C@@H]1N=C(N)N [Relenza]
- effect on Neu5Ac incorporation into H. influenzae [1]: did not have any effect
- inhibition of influenza A neuraminidase [2]: potent and specific inhibitors

SMILES: CCCCCCCC(=O)N[C@H]1C([C@H](O)[C@H](O)CO)OC(O)(C(=O)O)C[C@H]1O (stereo partly drawn) [SiaOct]
- inhibition of LOS sialylation (H. influenzae [7]): inhibitor of LOS sialylation

SMILES: CCOC(=O)C1=C[C@@H](OC(CC)CC)[C@H](NC(C)=O)[C@@H](N)C1 [Tamiflu]
- effect on Neu5Ac incorporation into H. influenzae [1]: did not have any effect
- inhibition of influenza A neuraminidase [2]: potent and specific inhibitors

SMILES: O=C(CO)[C@@H](O)[C@H](O)[C@H](O)CO [fructose]
- binding to siaT (siaT; Biacore): no binding

SMILES: C[C@H](O)[C@@H](O)[C@@H](O)[C@H](O)C=O [fucose]
- binding to siaP (summary statement) (siaT): failed to bind

SMILES: O=C[C@H](O)[C@@H](O)[C@@H](O)[C@H](O)CO [galactose]
- binding to siaT (siaT; Biacore): no binding
- binding to siaP (summary statement) (siaT): failed to bind
- evidence of binding to SiaP (SiaP [4]): no evidence of binding

SMILES: N[C@H]1C(O)O[C@H](CO)[C@@H](O)[C@@H]1O (stereo partly drawn) [glucosamine]
- evidence of binding to SiaP (SiaP [4]): no evidence of binding

SMILES: O=C[C@H](O)[C@@H](O)[C@H](O)CO [xylose]
- binding to siaT (siaT; Biacore): no binding
- binding to siaP (summary statement) (siaT): failed to bind
